Results reported in article PMC11011327 (International Journal of Molecular Sciences, 2024).
pKd: −log10 of the molar value. Read-outs that look alike come from different tables or passages of the source. Residues, ends and D or L forms follow the SMILES beside them. No end group written: not given here.

Assays:
Tag7 = molecular target: T1, Tag7 (Homo sapiens, UniProt O75594); test: Microscale thermophoresis, binding to fluorescent-labeled Tag7; details: ratio to previously shown Kd of Tag7–sTNFR1 (42.2)
T1 construct: His tag (inferred from the pQE-31 vector only); made in house; host or cells: E. coli M15 (pREP4)
T1 sequence (O75594 22-196): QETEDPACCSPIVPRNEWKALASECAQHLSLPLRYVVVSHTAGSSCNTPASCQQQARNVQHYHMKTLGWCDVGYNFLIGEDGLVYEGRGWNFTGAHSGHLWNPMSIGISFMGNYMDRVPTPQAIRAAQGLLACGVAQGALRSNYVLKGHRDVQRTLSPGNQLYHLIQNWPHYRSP
From the text: The calculated Kd indicates a high affinity among the studied complexes (Table 1).
Graphs are represented as Fnorm [‰] against ligand concentration. Data represent three independent experiments and were fitted to a Kd binding model assuming a 1:1 binding stoichiometry.
Hsp70 and TNF-α were purified with Ni-NTA Agarose (Thermo Fisher Scientific, Waltham, MA, USA) in accordance with the manufacturer’s instructions.
The samples were transferred to glass capillaries (Monolith NT Capillaries) and analyzed by microscale thermophoresis on a Nano-Temperature Monolith NT 115 device (30% IR laser power). The signal quality was monitored using a NanoTemper Monolith device to detect possible autofluorescence of the ligand, aggregation or changes in the rate of photobleaching. The experiments were carried out in at least three repetitions and processed using affinity analysis software (MO Control v.1.6.1, NanoTemper Technologies GmbH, München, Germany).

[1] = system: TNF-induced cytotoxicity, L929 cells; test: Inhibition of cytotoxic activity of TNF on L929 cells; type: cell-based; details: TNF 1 nM, peptide 10 nM, n = 5, TNF preincubated with TNFR1 peptide / cells preincubated with TNFL; for apoptotic cytotoxic activity of TNF in the presence of peptide: 3 h; for necroptotic cytotoxic activity of TNF in the presence of peptide: 20 h
Method: (§1) Next, we investigated how this interaction affects the cytotoxic activity of TNFR1 ligands. […] Cell apoptosis is a fast process of several hours. During necroptosis, cell death processes take place after a few dozen hours. Taking into account this ability of TNFR1 to participate in the induction of alternative cytotoxic pathways that develop at different time intervals, cytotoxic activity was determined after 3 h and after 20 h (Figure 4). […] It can be assumed that the inhibition of the cytotoxic effect of the ligands is associated with the competition of a 12-membered peptide with the cell surface receptor on for binding to the ligands.

[2] = system: Tag7–Hsp70-induced cytotoxicity, L929 cells; test: Inhibition of cytotoxic activity of Tag7–Hsp70 complex on L929 cells; type: cell-based; details: Tag7–Hsp70 1 nM, peptide 10 nM, n = 5, complex preincubated with TNFR1 peptide / cells preincubated with TNFL; for apoptotic cytotoxic activity of Tag7–Hsp70 complex in the presence of peptide: 3 h; for necroptotic cytotoxic activity of Tag7–Hsp70 complex in the presence of peptide: 20 h
Method: as §1

L929 cells [3] = system: L929 cells
Method: (§2) The TNFR1 antibodies were added to the sum of TNFL and TNFS peptides prior to incubation (a). Cytotoxic activity of the sum of TNFL and TNFS peptides on L929 cells after 3 (b) and 20 (c) hours in the presence of caspase 3 and 8 inhibitors (5 μM) and necrostatin1 (5 μM) is shown. (d) Cytotoxic activity of the sum of TNFL and TNFs peptides on L929 cells after 20 h of incubation in the presence of calpains inhibitors (10 μM), cathepsins inhibitors (10 μM) and antioxidant (1 μM). n = 5 for each point, (* p-value < 0.05).
(§3) L929 cells were cultured in DMEM with 2 mm L-glutamine and 10% FCS (Invitrogen, Carlsbad, CA, USA). This cell line was obtained from the cell line collection of the N. N. Blokhin National Medical Research Center of Oncology of the Ministry of Health of Russia.
(§4) For cytotoxicity tests, target cells were cultured in 96-well plates (3 × 10^4 cells per well), and cytotoxic complexes were added (1 nM). Cytotoxicity was measured after 20 h of incubation by Cytotox 96 analysis kit (Promega, Madison, WI, USA) in accordance with the manufacturer’s protocol. […]

[4] = system: tumor cells / cancer cells; details: ref [33]; cited from earlier work
From the text: The amino acid sequence of Tag7 seemingly lacks a peptide fragment interacting with the second site of the receptor.

tumor = details: ref [33]; cited from earlier work
From the text: Modifications of the TNF molecule are used to solve it.

sTNFR1 = details: read-out: Kd value for the Tag7–sTNFR1 complex; "Previously, we showed"; cited from earlier work
L929 cells [5] = test: Cytotoxic activity of TNF peptides on L929 cells; details: 20 h, n = 5, Cytotox 96 kit
Method: as §2, §3, §4

Compound | Kd of Tag7–TNFR1 peptide complex compared with Kd of Tag7–sTNFR1 complex (Tag7) | apoptotic cytotoxic activity of TNF in the presence of peptide [1] | necroptotic cytotoxic activity of TNF in the presence of peptide [1] | apoptotic cytotoxic activity of Tag7–Hsp70 complex in the presence of peptide [2] | necroptotic cytotoxic activity of Tag7–Hsp70 complex in the presence of peptide [2] | cytotoxic activity (L929 cells [3]) | killing of tumor cells [4] | inhibition of tumor growth / metastasis (tumor) | pKd (sTNFR1) | cytotoxic activity (L929 cells [5])
CC(C)C[C@H](NC(=O)[C@H](CS)NC(=O)[C@H](Cc1c[nH]cn1)NC(=O)[C@H](CCCNC(=N)N)NC(=O)[C@H](CC(C)C)NC(=O)[C@H](Cc1c[nH]cn1)NC(=O)[C@@H](N)CC(N)=O)C(=O)N[C@@H](CO)C(=O)N[C@@H](CS)C(=O)N[C@@H](CO)C(=O)N[C@@H](CCCCN)C(=O)N[C@@H](CS)C(=O)O [TNFR1 peptide] (H-NHLRHCLSCSKC-OH) | approximately 10 times lower | completely lose both apoptotic and necroptotic activity | completely lose both apoptotic and necroptotic activity | completely lose both apoptotic and necroptotic activity | completely lose both apoptotic and necroptotic activity |  |  |  |  | 
NPQAEGQLQWLNRRAN [TNFL peptide] |  | Both apoptosis (3 h) and necroptosis (20 h) were inhibited | Both apoptosis (3 h) and necroptosis (20 h) were inhibited | Both apoptosis (3 h) and necroptosis (20 h) were inhibited | Both apoptosis (3 h) and necroptosis (20 h) were inhibited | no cytotoxic effect |  |  |  | 
TNF peptide (aa. 150–170): TNF peptide (aa. 150–170), capable of killing tumor cells and inhibiting tumor growth (VLLTHTISRIAVSYQTKVNLL; UniProt P01375 150-170, looked up, fragment) |  |  |  |  |  |  | capable of killing tumor cells | inhibiting tumor growth |  | 
Tag7: recombinant human Tag7, innate immunity protein, TNFR1 ligand |  |  |  |  |  |  |  |  | 7.37 | 
YVLLTH [TNFS peptide] |  | does not inhibit apoptosis nor necroptosis | does not inhibit apoptosis nor necroptosis | does not inhibit apoptosis nor necroptosis | does not inhibit apoptosis nor necroptosis |  |  |  |  | no cytotoxic effect
